In PubChem BioAssay (NCI):
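Interpolation was linear, between the two tested concentrations surrounding the appropriate level; five concentrations were tested over 48 hours in 96-well plates. TGI denotes the concentration required for complete inhibition of growth.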

Experiments:
Assay in all cases: NCI-60 cell line screen, 48 h
A498 renal = system: A498 renal
COLO 205 colon = system: COLO 205 colon
HOP-62 NSCLC = system: HOP-62 NSCLC
LOX IMVI melanoma = system: LOX IMVI melanoma
OVCAR-5 ovarian = system: OVCAR-5 ovarian
SK-MEL-2 melanoma = system: SK-MEL-2 melanoma
SNB-75 CNS = system: SNB-75 CNS
SW-620 colon = system: SW-620 colon
TK-10 renal = system: TK-10 renal
U251 CNS = system: U251 CNS
SR leukemia = system: SR leukemia

Row | SMILES | TGI (A498 renal) [µM] | TGI (COLO 205 colon) [µM] | TGI (HOP-62 NSCLC) [µM] | TGI (LOX IMVI melanoma) [µM] | TGI (OVCAR-5 ovarian) [µM] | TGI (SK-MEL-2 melanoma) [µM] | TGI (SNB-75 CNS) [µM] | TGI (SW-620 colon) [µM] | TGI (TK-10 renal) [µM] | TGI (U251 CNS) [µM] | TGI (SR leukemia) [µM]
1 | CCNC(=O)Cc1nc2c(=O)[nH]cnc2n1C1OC(CO)C(O)C1O (stereo not drawn) | > 100 | > 100 | > 100 | > 100 | > 100 | > 100 | > 100 | > 100 | > 100 | > 100 | 
2 | [O-][n+]1onc2c1-c1nonc1CC2 | 83.6 | > 100 | 61.2 | 79 | > 100 | 65.2 |  | > 100 | 56.4 | > 100 | > 100
3 | O=C(NC1CCN(Cc2ccccc2)CC1)c1ccccc1I | > 100 | 34.8 | 37.9 | 32.6 | 58 | 48.7 |  | 38.9 | 63.6 | 63.3 | > 100
4 | C(=N/Nc1ccccn1)/c1cccnc1 | > 100 | > 100 | > 100 | > 100 | > 100 | > 100 | > 100 | > 100 | > 100 | > 100 | 
5 | Cc1cc2nc3c(C#N)c(-c4ccccc4)cc(Nc4cccc(C(F)(F)F)c4)n3c2cc1C | 29.5 | > 100 | 35.2 | > 100 | 47.1 | 12.7 | 72.9 | 20.7 | 33.6 |  | 
6 | C=C1C(=O)O[C@H]2[C@H]3O[C@@H](C[C@@H]12)[C@](C)(O)CCCC(C)=CCC[C@H]3C |  | 21 | 31.3 | 48.2 | 31.1 | 28.7 | 22.3 | 23 | 14.6 | 29.8 | > 100
7 | CC(C)(Cc1ccccc1)Cc1cc(O)ccc1O | 47.6 | 39.1 | 64.3 | 26.8 | 88.8 |  | 68.1 | 49.6 | 95.9 | 32.2 | 27.7
8 | Cn1c(=O)c2c(nc3sc4ncccc4c(=O)n32)n(C)c1=O | > 100 | > 100 | > 100 | > 100 | > 100 | > 100 | > 100 | > 100 | > 100 | > 100 | 
9 | CCC1CCN=C(Cn2cc(C)c(=O)[nH]c2=O)N1 (stereo not drawn) | > 100 | > 100 | > 100 | > 100 | > 100 | > 100 | > 100 | > 100 | > 100 | > 100 | 
10 | CCC(C)(C)c1ccc(Oc2cccc(C(=O)O)c2)cc1 | > 100 | > 100 | > 100 | > 100 | > 100 | > 100 | > 100 | > 100 | > 100 | > 100 | 
11 | CC1(CC(=O)OC(C#C[Si](C)(C)C)Cc2ccccc2)OCCO1 (stereo not drawn) | > 100 | > 100 | > 100 | > 100 | > 100 | > 100 | > 100 | > 100 | > 100 | > 100 | 
12 | N=c1c2ccccc2nc2oc3ccc(Cl)cc3n12 |  | > 100 | 19.2 | 26.8 | 47.1 | 51.3 | 23.6 | > 100 | 34.9 | 17.8 | > 100
13 | CCOC(=O)c1cc(Cl)ccc1OC(N)=O | > 100 | > 100 | > 100 | > 100 | > 100 | > 100 | > 100 | > 100 |  | > 100 | 
14 | O=C1/C(=C/c2cccc([N+](=O)[O-])c2)N=C(c2ccccc2)N1c1ccc2c(c1)Sc1cc(N3C(=O)/C(=C/c4cccc([N+](=O)[O-])c4)N=C3c3ccccc3)ccc1N2 | 55.1 | > 100 | 49.5 | 74.1 | 35.8 | 39.9 | 34.3 | > 100 | 39.4 | 66.5 | 
15 | COc1cc(C2SC(N)=Nc3c2c(C)nn3C(=O)Cc2ccccc2)ccc1O (stereo not drawn) | > 100 | > 100 | > 100 | > 100 |  |  | 75.2 | > 100 | > 100 |  | > 100
16 | COc1ccc(-n2nnnc2C2(Nc3ccccc3)CCN(Cc3ccccc3)CC2)cc1 | 48.7 | 20 | 56.2 | 24 | 48.8 |  | 44.7 | 38.3 | 40.9 | > 100 | > 100
17 | C/C(=C\[C@H]1C[C@@H]([C@@H]2CC[C@]34C[C@]23C=C[C@@H]2[C@@]3(C)CC=C5C[C@@H](c6ccccc6)OC[C@]5(C)[C@@H]3C[C@@H](O)[C@]24C)C(=O)O1)CO | 5.8 | 5.11 | > 100 | > 100 | 34.2 | > 100 | 92 | > 100 | > 56 | > 100 | 
18 | Clc1ccc(CSCc2ccc(Cl)cc2Cl)c(Cl)c1 | > 100 | > 100 | > 100 | > 100 | > 100 | 51.3 | 89 | > 100 | > 100 | > 100 | 
19 | CC1(c2nc3cc(Cl)c(Cl)cc3[nH]2)CCC(C(=O)O)C(C)(C)O1 (stereo not drawn) |  | > 100 | > 100 | > 100 | > 100 | > 100 | > 100 | > 100 | > 100 | > 100 | > 100
20 | COc1ccc(C2Oc3c(cccc3OC)C=C2[N+](=O)[O-])cc1 (stereo not drawn) |  | 6.95 | 5.8 | 2.81 | 6.48 |  |  |  | 7.5 | 3.76 | > 100
